Structures can show the parent of a compound that is named as a salt. Where a SMILES comes first, the peptide text is derived from it.
B1: plasmin: serine proteinase, formulated in buffered acidified water (reversibly inactive acidified plasmin) (protein, UniProt P00747 20-580; P00747 581-810, looked up)
Plasmin heavy chain A: EPLDDYVNTQGASLFSVTKKQLGAGSIEECAAKCEEDEEFTCRAFQYHSKEQQCVIMAENRKSSIIIRMRDVVLFEKKVYLSECKTGNGKNYRGTMSKTKNGITCQKWSSTSPHRPRFSPATHPSEGLEENYCRNPDNDPQGPWCYTTDPEKRYDYCDILECEEECMHCSGENYDGKISKTMSGLECQAWDSQSPHAHGYIPSKFPNKNLKKNYCRNPDRELRPWCFTTDPNKRWELCDIPRCTTPPPSSGPTYQCLKGTGENYRGNVAVTVSGHTCQHWSAQTPHTHNRTPENFPCKNLDENYCRNPDGKRAPWCHTTNSQVRWEYCKIPSCDSSPVSTEQLAPTAPPELTPVVQDCYHGDGQSYRGTSSTTTTGKKCQSWSSMTPHRHQKTPENYPNAGLTMNYCRNPDADKGPWCFTTDPSVRWEYCNLKKCSGTEASVVAPPPVVLLPDVETPSEEDCMFGNGKGYRGKRATTVTGTPCQDWAAQEPHRHSIFTPETNPRAGLEKNYCRNPDGDVGGPWCYTTNPRKLYDYCDVPQCAAPSFDCGKPQVEPKKCPGR
Plasmin light chain B: VVGGCVAHPHSWPWQVSLRTRFGMHFCGGTLISPEWVLTAAHCLEKSPRPSSYKVILGAHQEVNLEPHVQEIEVSRLFLEPTRKDIALLKLSSPAVITDKVIPACLPSPNYVVADRTECFITGWGETQGTFGAGLLKEAQLPVIENKVCNRYEFLNGRVQSTELCAGHLAGGTDSCQGDSGGPLVCFEKDKYILQGVTSWGLGCARPNKPGVYVRVSRFVTWIEGVMRNN
modifications: Plasmin acidified formulation

system: not given; experiment: not given; conditions: buffered acidified water, 4° C.; cited from earlier work

Molecule | storage stability
B1 | stable for at least nine months

same assay, conditions: buffered acidified water, room temperature; cited from earlier work

Molecule | storage stability
B1 | stable for at least two months

system: not given; experiment: not given; conditions: at 25° C.; cited from earlier work

Molecule | pKa
O=S(=O)(O)CCCCN1CCOCC1 [MOBS, 4-{N-morpholino}butanesulfonic acid] | 7.6
O=S(=O)(O)CCNC(CO)(CO)CO [TES, N-tris{hydroxymethyl}-methyl-2-aminoethanesulfonic acid] | 7.4
O=S(=O)(O)CC(O)CNC(CO)(CO)CO (stereo not shown) [TAPSO, 2-hydroxy-3{tris(hydroxymethyl)methylamino}-1-propanesulfonic acid] | 7.61
O=S(=O)(O)CCNC1CCCCC1 [CHES] | 9.5
3-(N,N-bis{2-hydroxyethyl}amino)-2-hydroxypropane [DIPSO] | 7.52

biological target: T1, human plasmin (Homo sapiens, UniProt P00747); experiment: Plasmin precipitation study in buffer solutions (PBS, pH of about 7.4); assay type: physicochemical; conditions: Test No. 9: ε-aminocaproic acid in combination with gelatin 0.3% (w/v), pH of about 7.4
T1 construct: which cleave a single-chain plasminogen molecule at the Arg^560 -Val^561 peptide bond, producing active plasmin; purchased Talecris, Inc. (Research Triangle Park, North Carolina)
Procedure: This acidified, lyophilized plasmin was reconstituted with 0.9% (by weight) NaCl solution to a concentration of 10 mg/ml. […] Combinations of ε-aminocaproic acid and gelatin or glycerin were also tested. The concentration of plasmin in the additive-containing buffer was 1 mg/ml.

Molecule | Minimum Concentration of Additive Required to Prevent Visually Observed Plasmin Precipitation
NCCCCCC(=O)O [ε-aminocaproic acid, reference compound] | 0.1 mM

same assay, conditions: Test No. 10: glycerin in combination with 0.1 mM ε-aminocaproic acid, pH of about 7.4

Molecule | Minimum Concentration of Additive Required to Prevent Visually Observed Plasmin Precipitation
OCC(O)CO [glycerin] | 6% (v/v)

same assay, conditions: Test No. 10: ε-aminocaproic acid in combination with glycerin 6% (v/v), pH of about 7.4

Molecule | Minimum Concentration of Additive Required to Prevent Visually Observed Plasmin Precipitation
NCCCCCC(=O)O [ε-aminocaproic acid, reference compound] | 0.1 mM

same assay, conditions: plasmin 1 mg/ml, observed within 2 hours

Molecule | Concentration Range Tested That Did Not Prevent Precipitation at pH of About 7.4
CN(C)CC(=O)O [N,N-dimethylglycine] | 0.5-1 M
CSCC[C@H](N)C(=O)O [L-methionine] | 0.2%
NCC(=O)O [glycine] | 0.1 M
O=S(=O)([O-])[O-].[Na+].[Na+] [sodium sulfate] | 0.3-0.6 M
O=C(O)C(=O)O [oxalic acid] | 50 mM
CC(O)CO (stereo not shown) [propylene glycol] | 2-20% v/v
OC[C@H]1O[C@H](O[C@H]2O[C@H](CO)[C@@H](O)[C@H](O)[C@H]2O)[C@H](O)[C@@H](O)[C@@H]1O [trehalose] | 10%
O=C(O)CCCCC(=O)O [adipic acid] | 50 mM

same assay, conditions: single additive, pH of about 7.4, plasmin 1 mg/ml, observed within 2 hours

Molecule | Minimum Concentration of Additive Required to Prevent Visually Observed Plasmin Precipitation
NCCCC(=O)O [γ-aminobutyric acid] | 5 mM
OCC(O)CO [glycerin] | 10% (by weight)
CNCC(=O)O [sarcosine, N-methylglycine] | 1 M
N=C(N)NCCC[C@H](N)C(=O)O [L-arginine] | 50 mM
NCCCCCCC(=O)O [7-aminoheptanoic acid] | 5 mM
NCCCCC(=O)O [5-aminovaleric acid] | 1 mM
C[N+](C)(C)CC(=O)O [betaine, (carboxymethyl)trimethylammonium inner salt] | 0.2 M
NCC(=O)NCC(=O)O [glycylglycine] (H-Gly-Gly-OH) | 10 mM
NCCCCCC(=O)O [ε-aminocaproic acid, reference compound] | 1 mM
NCC(=O)NCC(=O)NCC(=O)O [triglycine] (H-Gly-Gly-Gly-OH) | 10 mM
OC[C@@H](O)[C@@H](O)[C@H](O)[C@@H](O)CO [D-sorbitol] | 12% (w/v)
CC(=O)N[C@@H](CCCNC(=N)N)C(=O)O [N-α-acetyl-L-arginine] | 50 mM
NC[C@H]1CC[C@H](C(=O)O)CC1 [tranexamic acid, trans-4-(aminomethyl)cyclohexanecarboxylic acid, reference compound] | 0.5 mM

Source: patent US20070134231A1, “Method for prolonging activity of autodegradable enzymes and compositions thereof” (priority 2005, published 2007)
